Data: ChEMBL document CHEMBL6177981, “Bardoxolone Derivatives as Novel Pseudo-Natural Necroptosis Inhibitors by Destabilizing HSP90 Client Proteins” (J Med Chem, 2025)
Activity calls are given as the source filed them. The rule behind the calls is not given here.

Legend:
Mus musculus [1] = assay: (§1) Anti-necroptotic activity in TNFalpha/Z-VAD-FMK induced SIRS male C57BL/6J mouse model assessed as reduction in IL6 in intestine at 5 to 10 mg/kg, po pre-administered with compound via gavage for 2 hrs followed by […] of Z-VAD-FMK stimulation for 15 mins with subsequent TNF-alpha stimulation for 1 hrs and re-current […] of Z-VAD-FMK stimulation and measured after 8 hrs post SIRS induction by ELISA; type: functional, organism-based; conditions: dose 5-10 mg/kg, time 10.0 hrs
[2] = Acute toxicity in male C57BL/6J mouse assessed as effect on creatinine level at 2 g/Kg, IG measured after 72 hrs; conditions: in vivo, po, 2000 mg/kg
Mus musculus [3] = assay: as §1, with “liver” for “intestine”; type: functional, organism-based; conditions: dose 5-10 mg/kg, time 10.0 hrs
HT-29 [4] = assay: Effect on MLKL protein level in human HT-29 cell precipitate at 6 uM measured after 9 hrs by Western blot analysis; type: functional, cell-based
HT-29 [5] = assay: Downregulation of RIPK3 protein level in human HT-29 cell supernatant at 6 uM measured after 9 hrs by Western blot analysis; type: functional, cell-based
HT-29 [6] = assay: Downregulation of RIPK1 protein level in human HT-29 cells at 6 uM preincubated with MG132 for 2 hrs followed by compound addition and measured after 9 hrs by Western blot analysis; type: functional, cell-based
HT-29 [7] = assay: Downregulation of RIPK3 protein level in human HT-29 cells at 6 uM preincubated with Z-VAD-FMK for 2 hrs followed by compound addition and measured after 9 hrs by Western blot analysis; type: functional, cell-based
L929 = assay: Anti-necroptotic activity in TZ-induced mouse L929 cells assessed as increase in cell viability preincubated with compound followed by Z-VAD-FMK and mTNFalpha stimulation and measured after 4 hrs by CellTiter-Lumi luminescent cell viability assay; type: functional, cell-based; conditions: dose 0.625-10 µM
[8] = target: Heat shock protein HSP90 (Homo sapiens) (UniProt P07900+P08238); assay: Inhibition of HSP90 in TSZ-induced human HT-29 cells assessed as reduction in EGFR protein level at 10 uM preincubated with compound followed by Z-VAD-FMK, SM164 and TNFalpha stimulation and measured after 6 hrs by Western blot analysis; type: cell-based
[9] = Acute toxicity in male C57BL/6J mouse assessed as hemorrhage in liver at 2 g/Kg, IG measured after 72 hrs by H and E staining based analysis; type: tissue-based; conditions: in vivo, po, 2000 mg/kg
[10] = Acute toxicity in male C57BL/6J mouse assessed as structural changes in spleen at 2 g/Kg, IG measured after 72 hrs by H and E staining based analysis; type: tissue-based; conditions: in vivo, po, 2000 mg/kg
[11] = Acute toxicity in male C57BL/6J mouse assessed as survival at 2 g/Kg, po measured within 72 hrs relative to control; type: organism-based; conditions: in vivo, 2000 mg/kg
Mus musculus [12] = assay: as §1, with “lung” for “intestine”; type: functional, organism-based; conditions: dose 5-10 mg/kg, time 10.0 hrs
[13] = target: Receptor-interacting serine/threonine-protein kinase 3 (Homo sapiens) (UniProt Q9Y572); assay: Inhibition of RIPK3 phosphorylation at S227 residue in TSZ-induced human HT-29 cells at 10 uM preincubated with compound followed by Z-VAD-FMK, SM164 and TNFalpha stimulation and measured after 6 hrs by Western blot analysis; type: cell-based
Sequence of Receptor-interacting serine/threonine-protein kinase 3 (Homo sapiens) (Q9Y572 whole entry, looked up): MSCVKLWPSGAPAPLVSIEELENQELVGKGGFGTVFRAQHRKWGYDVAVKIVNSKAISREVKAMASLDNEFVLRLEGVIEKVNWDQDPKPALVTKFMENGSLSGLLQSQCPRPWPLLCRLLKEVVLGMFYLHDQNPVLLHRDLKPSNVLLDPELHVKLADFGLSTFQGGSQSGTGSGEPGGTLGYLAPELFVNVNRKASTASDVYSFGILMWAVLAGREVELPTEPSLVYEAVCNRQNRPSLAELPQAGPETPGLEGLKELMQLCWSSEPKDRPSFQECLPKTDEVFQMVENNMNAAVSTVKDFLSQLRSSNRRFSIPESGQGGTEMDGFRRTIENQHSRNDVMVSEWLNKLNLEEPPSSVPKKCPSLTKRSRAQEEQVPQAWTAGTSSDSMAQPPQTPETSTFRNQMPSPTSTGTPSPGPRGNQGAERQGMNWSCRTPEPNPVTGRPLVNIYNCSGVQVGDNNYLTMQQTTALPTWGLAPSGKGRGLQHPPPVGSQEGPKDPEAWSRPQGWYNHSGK

HT-29 [14] = assay: Downregulation of MLKL protein level in human HT-29 cells at 6 uM preincubated with Z-VAD-FMK for 2 hrs followed by compound addition and measured after 9 hrs by Western blot analysis; type: functional, cell-based
HT-29 [15] = assay: Downregulation of RIPK1 protein level in human HT-29 cells at 6 uM preincubated with NH4Cl for 2 hrs followed by compound addition and measured after 9 hrs by Western blot analysis; type: functional, cell-based
HeLa = assay: Downregulation of EGFR expression in RIPK3-deficient human HeLa cells at 0.75 to 6 uM incubated for 9 hrs by Western blot analysis; type: functional, cell-based; conditions: dose 0.75-6 µM
[16] = Acute toxicity in male C57BL/6J mouse assessed as effect on urea level at 2 g/Kg, IG measured after 72 hrs; conditions: in vivo, po, 2000 mg/kg
[17] = Acute toxicity in male C57BL/6J mouse assessed as structural changes in intestine at 2 g/Kg, IG measured after 72 hrs by H and E staining based analysis; type: tissue-based; conditions: in vivo, po, 2000 mg/kg
HT-29 [18] = assay: Effect on cell morphology in TSZ-induced necroptotic human HT-29 cells at 10 uM measured after 12 hrs by Live-cell super-resolution panoramic microscopic analysis; type: functional, cell-based
[19] = Tmax in Sprague-Dawley rat at 2 mg/kg, iv measured after 24 hrs by LC-MS/MS analysis; type: ADME, organism-based; conditions: in vivo
HT-29 [20] = assay: Downregulation of MLKL protein level in human HT-29 cells at 6 uM preincubated with MLN4924 for 2 hrs followed by compound addition and measured after 9 hrs by Western blot analysis; type: functional, cell-based
HT-29 [21] = assay: Downregulation of RIPK1 protein level in human HT-29 cell precipitate at 6 uM measured after 9 hrs by Western blot analysis; type: functional, cell-based
Mus musculus [22] = assay: as §1, with “spleen” for “intestine”; type: functional, organism-based; conditions: dose 5-10 mg/kg, time 10.0 hrs
[23] = Acute toxicity in male C57BL/6J mouse assessed as hemorrhage in intestine at 2 g/Kg, IG measured after 72 hrs by H and E staining based analysis; type: tissue-based; conditions: in vivo, po, 2000 mg/kg
[24] = Acute toxicity in male C57BL/6J mouse assessed as structural changes in heart at 2 g/Kg, IG measured after 72 hrs by H and E staining based analysis; type: tissue-based; conditions: in vivo, po, 2000 mg/kg
[25] = Bioavailability in Sprague-Dawley rat at 10 mg/kg, IG measured after 24 hrs by LC-MS/MS analysis; type: ADME, organism-based; conditions: in vivo, po
Mus musculus [26] = assay: as §1, with “survival rate” for “reduction in IL6 in intestine”, “5” for “5 to 10”, “relative to control” for “by ELISA”; type: functional; conditions: time 10 hrs
[27] = Acute toxicity in male C57BL/6J mouse assessed as hemorrhage in heart at 2 g/Kg, IG measured after 72 hrs by H and E staining based analysis; type: tissue-based; conditions: in vivo, po, 2000 mg/kg
HT-29 [28] = assay: Anti-necroptotic activity in TSZ-induced human HT-29 cells assessed as increase in cell viability preincubated with Z-VAD-FMK and SM164 for 30 mins followed by TNFalpha stimulation for 12 hrs and measured after compound addition by CellTiter-Lumi luminescent cell viability assay; type: functional, cell-based
HT-29 [29] = assay: Upregulation of HSP70 expression in human HT-29 cells at 1.5 uM incubated for 9 hrs by Western blot analysis; type: functional, cell-based

Cn1ccc(-c2ccc(NC(=O)[C@]34CCC(C)(C)C[C@H]3[C@H]3C(=O)C=C5[C@@]6(C)C=C(C#N)C(=O)C(C)(C)[C@@H]6CC[C@@]5(C)[C@]3(C)CC4)cc2)n1
Activity (Mus musculus [1]): Active
Activity [2]: Non-toxic
Activity (Mus musculus [3]): Active
Activity (HT-29 [4]): inactive
Activity (HT-29 [5]): Active
Activity (HT-29 [6]): Active
Activity (HT-29 [7]): Active
Activity (L929): Dose-dependent-effect
inhibition [8]: Active
Activity [9]: Non-toxic
Activity [10]: Non-toxic
survival at 72 h [11]: 100%
Activity (Mus musculus [12]): Active
inhibition [13]: Active
Activity (HT-29 [14]): Active
Activity (HT-29 [15]): Active
Activity (HeLa): Active
Activity [16]: Non-toxic
Activity [17]: Non-toxic
Activity (HT-29 [18]): Active
Tmax [19]: 4.98 min
Activity (HT-29 [20]): Active
Activity (HT-29 [21]): inactive
Activity (Mus musculus [22]): Active
Activity [23]: Non-toxic
Activity [24]: Non-toxic
bioavailability [25]: 4.66%
survival at 5 mg/kg (Mus musculus [26]): 58%
Activity [27]: Non-toxic
EC50 (HT-29 [28]): 1380 nM
Activity (HT-29 [29]): Active
